Values after ≈ are worked out from the molar mass of the structure shown. Read-outs that look alike come from different tables or passages of the source.
Experiments:
[1] = water
Method: (§1) The aqueous solution was added to the above ethyl alcohol solution with stirring. The solution thus obtained was lyophilized to obtain a powder.
(§2) After 4 hours, the mixture was filtered through a filter having pore size of 0.22 μm.

[2] = water; remark: listed apart in the source
Method: as §1, §2

[3] = Stability of powders at 40° C. for 2 weeks (residual amount of Compound A by HPLC); assay type: physicochemical; conditions: powder storage, 336 h
Method: The residual amounts of Compound A was determined by HPLC.

[4] = Solubility of diazepam or clofibrate complex with G2 βCD versus drug alone
From the text: The solubility of the complex was compared with that of the drug alone.

Row | Compound | Comparison of solubilities (solubility concentration of Compound A) [1] [µg/mL] | Comparison of solubilities (solubility concentration of Compound A) [2] [µg/mL] | Stability, Residual rate [3] [%] | solubility [4] [µg/mL]
1 | CO[C@@H]1[C@H](OC(=O)NC(=O)CCl)CC[C@]2(CO2)[C@H]1[C@@]1(C)O[C@@H]1CC=C(C)C [Compound A, 6-O-(N-chloroacetylcarbamoyl)fumagillol] | 1700 | 1700 | 81.4 | –
2 | CCOC(=O)C(C)(C)Oc1ccc(Cl)cc1 [Clofibrate, clofibrate] | – | – | – | 36 (≈ 148 µM)

Reference: US5486508A, “Cyclodextrin composition” (TAKEDA Chemical Industries Ltd., priority 1991, dated 1996)
